This passage reports relative viability results from the supplement of paper PMC10307832.

Test in all cases: relative viability (nuclei count vs DMSO), 5 days (fraction); higher = more cells survive
Compound in assay [1]: C1=CC2=C(C=C(C(=C2N=C1)O)N=NC3=CC4=C(C=C3)C=C(C=C4)S(=O)(=O)O)S(=O)(=O)O + CCNC(=O)c1noc(-c2cc(C(C)C)c(O)cc2O)c1-c1ccc(CN2CCOCC2)cc1 [Luminespib] (partner 0.01 µM)
The method, boiled down: (§1)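 One day after seeding in 1536-well plates, lung cancer cell lines were dosed by pin tool. Dosing was either single-drug or a fixed anchor-drug dose plus five library-drug doses (not always all listed) in √10 steps. After 5 days, nuclei were stained in one fix-and-stain step and counted on 4× images, and relative viability is the nuclei count of treated wells over that of vehicle wells, given as the median of duplicate plates.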

Compound in assay [2]: C1=CC2=C(C=C(C(=C2N=C1)O)N=NC3=CC4=C(C=C3)C=C(C=C4)S(=O)(=O)O)S(=O)(=O)O + C[C@@H](Oc1cc(-c2cnn(C3CCNCC3)c2)cnc1N)c1c(Cl)ccc(F)c1Cl [Crizotinib] (partner 1 µM)
Summed up: as §1

Compound in the assay “AT-7519 + OSI-027”: O=C(NC1CCNCC1)c1n[nH]cc1NC(=O)c1c(Cl)cccc1Cl [AT-7519] + COc1cccc2cc(-c3nc([C@H]4CC[C@H](C(=O)O)CC4)n4ncnc(N)c34)[nH]c12 [OSI-027] (partner 0.5 µM)
Summed up: as §1

Compound in assay [3]: C1=CC2=C(C=C(C(=C2N=C1)O)N=NC3=CC4=C(C=C3)C=C(C=C4)S(=O)(=O)O)S(=O)(=O)O + Nc1nc2[nH]cc(CCc3ccc(C(=O)N[C@@H](CCC(=O)O)C(=O)O)cc3)c2c(=O)[nH]1 [Pemetrexed] (partner 0.2 µM)
Summed up: as §1

NCI-H1993: the relative viability worked out at 0.83 in assay [1] (first compound 0.08 µM); 0.865 in assay [1] (first compound 0.253 µM); 0.853 in assay [1] (first compound 0.8 µM); 1.09 in assay [1] (first compound 2.53 µM); 0.589 in assay [1] (first compound 8 µM); 0.866 in assay [2] (first compound 0.08 µM). Moreover, the relative viability in assay [2] (first compound 0.253 µM) was determined as 0.904; in assay [2] (first compound 0.8 µM), 0.864; in assay [2] (first compound 2.53 µM), 0.797; in assay [2] (first compound 8 µM) it was 0.896; with AT-7519 + OSI-027 (first compound 0.01 µM), 0.569; with AT-7519 + OSI-027 (first compound 0.03162 µM) it was 0.494. Besides, the relative viability with AT-7519 + OSI-027 (first compound 0.3162 µM) worked out at 0.49; with AT-7519 + OSI-027 (first compound 1 µM) it was 0.563; in assay [3] (first compound 0.08 µM) it was 0.511; in assay [3] (first compound 0.253 µM) it was 0.539; in assay [3] (first compound 0.8 µM), 0.6; in assay [3] (first compound 2.53 µM), 0.589. Besides, the relative viability in assay [3] (first compound 8 µM) turned out to be 0.617.

For the cell line NCI-H2009, the relative viability is 1.08 in assay [1] (first compound 0.08 µM); 0.995 in assay [1] (first compound 0.253 µM); 1.04 in assay [1] (first compound 0.8 µM); 1.14 in assay [1] (first compound 2.53 µM); 0.623 in assay [1] (first compound 8 µM); 1.14 in assay [2] (first compound 0.08 µM). For the same cell line, the relative viability in assay [2] (first compound 0.253 µM) worked out at 1.04; in assay [2] (first compound 0.8 µM), 1.09; in assay [2] (first compound 2.53 µM), 1.07; in assay [2] (first compound 8 µM) it was 1.02; in the assay with AT-7519 + OSI-027 (first compound 0.01 µM) it was 0.638; with AT-7519 + OSI-027 (first compound 0.03162 µM) it was 0.665. Moreover, the relative viability is 0.587 with AT-7519 + OSI-027 (first compound 0.3162 µM); 0.321 with AT-7519 + OSI-027 (first compound 1 µM); 1.07 in assay [3] (first compound 0.08 µM); 1.05 in assay [3] (first compound 0.253 µM); 0.89 in assay [3] (first compound 0.8 µM); 1.04 in assay [3] (first compound 2.53 µM). Besides, the relative viability in assay [3] (first compound 8 µM) worked out at 0.988.

Regarding NCI-H2023, the relative viability came to 0.87 in assay [1] (first compound 0.08 µM); 0.741 in assay [1] (first compound 0.253 µM); 0.788 in assay [1] (first compound 0.8 µM); 0.914 in assay [1] (first compound 2.53 µM); 0.52 in assay [1] (first compound 8 µM); 0.831 in assay [2] (first compound 0.08 µM). In addition, the relative viability in assay [2] (first compound 0.253 µM) came out at 0.702; in assay [2] (first compound 0.8 µM), 0.654; in assay [2] (first compound 2.53 µM), 0.726; in assay [2] (first compound 8 µM), 0.483; with AT-7519 + OSI-027 (first compound 0.01 µM) it was 0.435; with AT-7519 + OSI-027 (first compound 0.03162 µM), 0.347. Moreover, the relative viability amounted to 0.351 with AT-7519 + OSI-027 (first compound 0.3162 µM); 0.203 with AT-7519 + OSI-027 (first compound 1 µM); 0.205 in assay [3] (first compound 0.08 µM); 0.223 in assay [3] (first compound 0.253 µM); 0.265 in assay [3] (first compound 0.8 µM); 0.256 in assay [3] (first compound 2.53 µM). Moreover, the relative viability in assay [3] (first compound 8 µM) turned out to be 0.14.

Consider NCI-H2085, for which the relative viability turned out to be 0.409 in assay [1] (first compound 0.08 µM); 0.419 in assay [1] (first compound 0.253 µM); 0.426 in assay [1] (first compound 0.8 µM); 0.367 in assay [1] (first compound 2.53 µM); 0.44 in assay [1] (first compound 8 µM); 0.956 in assay [2] (first compound 0.08 µM). The relative viability in assay [2] (first compound 0.253 µM) was determined as 0.891; in assay [2] (first compound 0.8 µM), 0.855; in assay [2] (first compound 2.53 µM), 0.85; in assay [2] (first compound 8 µM), 0.725; with AT-7519 + OSI-027 (first compound 0.01 µM) it was 0.739; with AT-7519 + OSI-027 (first compound 0.03162 µM), 0.662. Further, the relative viability with AT-7519 + OSI-027 (first compound 0.3162 µM) came to 0.626; in the assay with AT-7519 + OSI-027 (first compound 1 µM), 0.651; in assay [3] (first compound 0.08 µM), 0.923; in assay [3] (first compound 0.253 µM), 0.864; in assay [3] (first compound 0.8 µM) it was 0.846; in assay [3] (first compound 2.53 µM), 0.903. Also, the relative viability in assay [3] (first compound 8 µM) was 0.92.

Consider NCI-H2087, for which the relative viability in assay [1] (first compound 0.08 µM) came to 0.169; in assay [1] (first compound 0.253 µM), 0.191; in assay [1] (first compound 0.8 µM) it was 0.153; in assay [1] (first compound 2.53 µM), 0.231; in assay [1] (first compound 8 µM), 0.237; in assay [2] (first compound 0.08 µM), 1.04. Also, the relative viability is 0.952 in assay [2] (first compound 0.253 µM); 0.957 in assay [2] (first compound 0.8 µM); 0.694 in assay [2] (first compound 2.53 µM); 0.833 in assay [2] (first compound 8 µM); 0.729 with AT-7519 + OSI-027 (first compound 0.01 µM); 0.649 with AT-7519 + OSI-027 (first compound 0.03162 µM). Further, the relative viability with AT-7519 + OSI-027 (first compound 0.3162 µM) turned out to be 0.493; in the assay with AT-7519 + OSI-027 (first compound 1 µM), 0.151; in assay [3] (first compound 0.08 µM) it was 0.643; in assay [3] (first compound 0.253 µM), 0.599; in assay [3] (first compound 0.8 µM), 0.567; in assay [3] (first compound 2.53 µM) it was 0.602. In addition, the relative viability in assay [3] (first compound 8 µM) was 0.7.

Consider NCI-H2126, for which the relative viability in assay [1] (first compound 0.08 µM) worked out at 0.898; in assay [1] (first compound 0.253 µM), 0.899; in assay [1] (first compound 0.8 µM), 0.89; in assay [1] (first compound 2.53 µM), 1.04; in assay [1] (first compound 8 µM), 0.86; in assay [2] (first compound 0.08 µM), 1.09. Further, the relative viability in assay [2] (first compound 0.253 µM) turned out to be 0.937; in assay [2] (first compound 0.8 µM) it was 0.993; in assay [2] (first compound 2.53 µM), 1.03; in assay [2] (first compound 8 µM), 1.01; with AT-7519 + OSI-027 (first compound 0.01 µM), 0.668; in the assay with AT-7519 + OSI-027 (first compound 0.03162 µM), 0.665. Besides, the relative viability in the assay with AT-7519 + OSI-027 (first compound 0.3162 µM) amounted to 0.575; with AT-7519 + OSI-027 (first compound 1 µM), 0.688; in assay [3] (first compound 0.08 µM) it was 0.671; in assay [3] (first compound 0.253 µM), 0.641; in assay [3] (first compound 0.8 µM), 0.689; in assay [3] (first compound 2.53 µM), 0.723. In assay [3] (first compound 8 µM), the relative viability was determined as 0.75.
